In publication PMC9858427, “Design, synthesis and biological evaluation of 2-((4-sulfamoylphenyl)amino)-pyrrolo[2,3-d]pyrimidine derivatives as CDK inhibitors” (Journal of Enzyme Inhibition and Medicinal Chemistry, 2023):
“Also recorded” adds a separate entry of the source. Like-named read-outs stand apart in the source and are kept apart here.

Tests used:
[1] = Drug concentration in tumour tissue and plasma of tumour-bearing mice; assay type: in vivo, BALB/C nude mice; details: for concentration at 1 h / concentration at 4 h: female, BALB/C nude, mouse, tumour-bearing mice (n = 3); for concentration at 1 h: 1.0 h after 30 mg/kg single oral dosing; for concentration at 4 h: 4.0 h after 30 mg/kg single oral dosing
Protocol: AsPC-1 (5 × 10^7) cells were injected subcutaneously into 5-week-old female BALB/C nude mice (Beijing Huafukang Bioscience CO. Inc, Beijing, China). After two weeks, mice were omogenizamised and treated with vehicle, gemcitabine (GCTB), or test compound. Blank solvent and test compound was administered by oral gavage (10 ml/kg) with once daily of five days and followed by 2 days off in each week, GCTB was given once a week by 50 mg/kg intraperitoneal injection. Mice were inspected daily for clinical signs, both tumour diameters and body weight were determined 3 times weekly. Tumour volumes were calculated according to the formula “tumor volume (V) = length × width^2/2”. Median TGI values were calculated as follows: TGI = 100 × [1-(Vtreated group at day20-Vtreated group at day1)/(Vvehicle group at day20-Vvehicle group at day1)]. Data were plotted as average with SD in the graphical representation of tumour growth. The p values obtained from the two-way ANOVA analysis. Meanwhile, main organs of mice were collected, formalin-fixed and paraffin-embedded for pathological analysis by H&E dyeing. For drug concentration determination, blood and tumour tissues were collected at indicated time after single administration. Standard curve of test compound was established in the acquisition mode of SIM using a SHIMADZU LC-MS instrument. Blood kept in anticoagulant tube coated with heparin sodium was centrifuged to provide the supernatant, which was followed by added with 3-fold acetonitrile to precipitate plasma protein. After centrifugation at 10 × 10^3 for 5 min, the supernatant was injected directedly into LC-MS instrument for quantification of drug concentration. As for tumour tissues, omogenizationation (Precellys Evolution) was done after weighed accurately and added with 3-fold saline. After centrifugation under same condition as plasma samples, supernatant was separated and injected into LC-MS for quantification.

CDK4 = CDK4 (Homo sapiens, UniProt P11802); test: CDK4 kinase IC50, Mobility shift assay; assay type: biochemical
Chain of CDK4 (P11802 whole entry): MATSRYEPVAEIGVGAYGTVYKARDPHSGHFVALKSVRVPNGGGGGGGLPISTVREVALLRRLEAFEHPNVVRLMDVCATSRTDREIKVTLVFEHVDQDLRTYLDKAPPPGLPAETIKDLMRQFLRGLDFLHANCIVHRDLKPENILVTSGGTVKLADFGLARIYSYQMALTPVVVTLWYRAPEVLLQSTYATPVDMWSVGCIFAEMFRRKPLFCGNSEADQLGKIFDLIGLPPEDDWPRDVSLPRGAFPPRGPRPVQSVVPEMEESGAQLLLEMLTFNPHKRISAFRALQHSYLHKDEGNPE
Chain of CDK4 (P30281 whole entry partner): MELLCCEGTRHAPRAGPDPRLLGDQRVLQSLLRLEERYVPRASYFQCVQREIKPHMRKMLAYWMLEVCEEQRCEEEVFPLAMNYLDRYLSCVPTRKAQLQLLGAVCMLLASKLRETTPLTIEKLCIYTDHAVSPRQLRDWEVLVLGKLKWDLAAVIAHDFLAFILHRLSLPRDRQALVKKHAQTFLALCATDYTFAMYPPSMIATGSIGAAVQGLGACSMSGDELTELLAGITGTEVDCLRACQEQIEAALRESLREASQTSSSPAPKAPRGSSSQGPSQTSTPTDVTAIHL
Protocol: CDK kinase activity (IC50 values and inhibitory rate at single concentration) was measured using the kinase profiling services (Shanghai ChemPartner Co., Ltd). Compounds were sent to ChemPartner as a solution in DMSO at concentration of 10 mM.

[2] = test system: AsPC-1 cell-derived xenograft; test: AsPC-1 cell-derived xenograft mice model, in vivo efficacy; design: species or system BALB/C nude mice; details: five days on two days off per week
Protocol: (§1) Synthetic compound was administered as a suspension or solution in the saline with 5% DMSO and 5% Solutol. GCTB was dissolved in saline. All of the experiments were approved by the Institutional Animal Care and Use Committee of Institute of Medicinal Biotechnology. All experiments were carried out under ethics committee–approved protocols and in compliance with the guidelines for the care of laboratory animals of Institute of Medicinal Biotechnology, CAMS.
AsPC-1 (5 × 10^7) cells were injected subcutaneously into 5-week-old female BALB/C nude mice (Beijing Huafukang Bioscience CO. Inc, Beijing, China). After two weeks, mice were omogenizamised and treated with vehicle, gemcitabine (GCTB), or test compound. Blank solvent and test compound was administered by oral gavage (10 ml/kg) with once daily of five days and followed by 2 days off in each week, GCTB was given once a week by 50 mg/kg intraperitoneal injection. Mice were inspected daily for clinical signs, both tumour diameters and body weight were determined 3 times weekly. Tumour volumes were calculated according to the formula “tumor volume (V) = length × width^2/2”. Median TGI values were calculated as follows: TGI = 100 × [1-(Vtreated group at day20-Vtreated group at day1)/(Vvehicle group at day20-Vvehicle group at day1)]. Data were plotted as average with SD in the graphical representation of tumour growth. The p values obtained from the two-way ANOVA analysis. Meanwhile, main organs of mice were collected, formalin-fixed and paraffin-embedded for pathological analysis by H&E dyeing. For drug concentration determination, blood and tumour tissues were collected at indicated time after single administration. Standard curve of test compound was established in the acquisition mode of SIM using a SHIMADZU LC-MS instrument. […] After centrifugation at 10 × 10^3 for 5 min, the supernatant was injected directedly into LC-MS instrument for quantification of drug concentration. […] After centrifugation under same condition as plasma samples, supernatant was separated and injected into LC-MS for quantification.

[3] = test system: phosphorylation of Rb and RNA polymerase II, Mcl-1 and c-Myc protein; test: Immunoblots of CDK downstream proteins in MIA PaCa-2 cells; assay type: cell-based, human; details: 6 h exposure
Protocol: Harvested cells were lysed in 20 mmol/L Tris pH 7.7, 100 mmol/L NaCl, 20 mmol/L β-glycerophosphate, 5 mmol/L MgCl2, 1 mmol/L NaF, 0.1% Triton X-100, 5% glycerol plus freshly added 1 mmol/L DTT, 0.1 µmol/L okadaic acid, 1 mmol/L sodium vanadate, and cOmplete Mini Protease Inhibitor Tablets (Roche, #11836170001). For SDS-PAGE, equal amounts of protein/lane were loaded. After gel transfer onto PDV membrane, immunoblots were performed using the following antibodies: CDK9 (Cell Signalling Technology #C12FT; 1:1,000), RNA polymerase II (Abcam #ab5131; 1:1000), MCL-1 (Abcam #Y37; […] (Cell Signalling Technology #d2b12; 1:1,000), c-Myc (Abcam #YB69; 1:1000). Secondary antibodies were from Cell Signalling Technology (#7076 or #7074). ECL detection was performed.

BxPC-3 = test: MTT proliferation assay in BxPC-3 cells; assay type: cell-based; details: Homo sapiens, 72 h drug exposure
Protocol: The human pancreatic carcinoma MIA PaCa-2 was purchased from China Centre for Type Culture Collection, AsPC-1 and BxPC-3 cell Lines were purchased from Cell Centre of the Institute of Basic Medical Sciences, Chinese Academy of Medical Sciences and Peking Union Medical College. PANC-1 was kindly provided by Nankai Hospital (Tianjin, China). These cancer cell lines were cultured according to the manufacturer’s instruction.
Cells were planted in 96-well plates at a density of 3000–4000 cells per well and incubated at 37 °C in a humidified CO2 incubator for 24 h. Then 3-fold diluted concentrations of tested compound were added respectively which was dissolved by DMSO in the ratio of 1:1000. After indicated incubation period, MTT was added to each well and incubated for 4 h at 37 °C. Then, the supernatant was discarded gently, and the precipitate was dissolved in 100 µL of DMSO in each well. The absorbance (A) at 570 nm was detected with a microplate reader (Multiskan MK3; Thermo Fisher Scientific, MA, USA). Vehicle-treated cells were served as the control for the calculation of relative cell viability (%) of treated group at single concentration. IC50 value was calculated directly from the inhibition curve of serial dilution of test compound and was expressed as mean ± SD using the SPSS statistical software (SPSS17.0 Inc., Chicago, IL, USA).

Oral PK study in rats = assay type: in vivo; details: male, SD, rat, plasma, 30 mg/kg
Protocol: as §1
SD rats were purchased from Beijing Vital River Laboratory Animal Technology Co., Ltd and randomly divided into three groups (n = 3, male). The animals were housed under standard conditions and fastened for 12 h before the treatment. They had free access to water and consumed a standard laboratory diet from 4 h after administration. Blood was taken from the orbital venous plexus at 0, 0.083, 0.25, 0.5, 1, 2, 4, 6, 8, and 24 h after intragastric administration of the test compound (30 mg/kg). The blood samples were collected into heparin anticoagulated EP tubes and centrifuged at 8000 r/min for 5 min at 2−8 °C; the plasma was separated and stored at −70 °C for use. Plasma was centrifuged at 4000 rpm for 10 min at 2−8 °C and stored at −70 °C until analysis. Plasma samples were analysed by LC-MS/MS (AB Sciex API4000 QTRAP) equipped with an ESI ion resource and Analyst 1.5.1 software. The noncompartmental model analysis was used for calculating pharmacokinetic parameters with the WinNolin professional v6.3 program (Pharsight, USA).

[4] = plasma, read-out: Drug concentration (µM) Plasma
[5] = read-out: Drug concentration (µM) Tumour

CN(C)C(=O)c1cc2cnc(Nc3ccc(S(N)(=O)=O)cc3)nc2n1C1CCCC1 [compound 2g, 7-Cyclopentyl-N,N-dimethyl-2-((4-sulfamoylphenyl)amino)-7H-pyrrolo[2,3-d]pyrimidine-6-carboxamide]
drug concentration in plasma and tumour tissue relative to cellular IC50 value ([1]; 30 mg/kg single oral dosing, both plasma and tumour tissue): higher than 2 fold
concentration at 1 h [1, 4]: 7.46 ± 1.95 µM
concentration at 4 h [1, 4]: 0.53 ± 0.41 µM
concentration at 1 h [1, 5]: 3.13 ± 0.64 µM
concentration at 4 h [1, 5]: 0.48 ± 0.34 µM
IC50 (CDK4): 12 nM
tumour growth inhibition (TGI) ([2]; oral 30 mg/kg, 3-week administration): 12%
reduction of tumour volume compared to vehicle group ([2]; oral 60 mg/kg, 3 weeks): up to 46%
Mcl-1 and c-Myc protein level [3]: down-regulation of Mcl-1 and c-Myc protein
phosphorylation of Rb and RNA polymerase II [3]: down-regulation of phosphorylated Rb protein; also recorded: inhibited the phosphorylation of Rb and RNA polymerase II
IC50 (BxPC-3): 0.226 ± 0.065 µM
Cmax (Oral PK study in rats; single oral administration, read-out: maximum plasma drug concentration (Cmax)): 1160 ng/mL
AUC (Oral PK study in rats; single oral administration, read-out: systematic exposure (AUC0‑t)): 4620 ng·h/mL
AUC(0-inf) (Oral PK study in rats; oral, n = 3): 5080 ± 268 ng·h/mL
AUC(0-t) (Oral PK study in rats; oral, n = 3): 4620 ± 145 ng·h/mL
MRT (Oral PK study in rats; oral, n = 3): 7.72 h
Tmax (Oral PK study in rats; oral, n = 3): 0.5 h
half-life (Oral PK study in rats; oral, n = 3): 7.54 h
Cmax (Oral PK study in rats; oral, n = 3, read-out: Cmax): 2700 nM
